Measured values: PubChem BioAssay (NCI)
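1) Cells in 96-well plates. 2) Compound, 48 h, 5 concentrations. 3) Linear interpolation between surrounding doses. 4) Unreached endpoint = highest concentration. GI50: concentration for 50% inhibition of growth. At the TGI there is no net growth.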

Key:
Test in all cases: inhibition of tumour cell growth, NCI panel, 48 h
TK-10 renal = tested on: TK-10 renal
HT29 colon = tested on: HT29 colon
NCI-H23 lung = tested on: NCI-H23 lung
PC-3 prostate = tested on: PC-3 prostate
RXF 393 renal = tested on: RXF 393 renal
NCI-H460 lung = tested on: NCI-H460 lung
OVCAR-3 ovarian = tested on: OVCAR-3 ovarian
COLO 205 colon = tested on: COLO 205 colon
MDA-MB-435 = tested on: MDA-MB-435
UACC-62 melanoma = tested on: UACC-62 melanoma
K-562 leukemia = tested on: K-562 leukemia
MDA-MB-231 breast = tested on: MDA-MB-231 breast
SK-MEL-5 melanoma = tested on: SK-MEL-5 melanoma
A498 renal = tested on: A498 renal
SF-539 CNS = tested on: SF-539 CNS
LOX IMVI melanoma = tested on: LOX IMVI melanoma
A549 NSCLC = tested on: A549 NSCLC
SF-295 CNS = tested on: SF-295 CNS
SK-MEL-28 melanoma = tested on: SK-MEL-28 melanoma
SW-620 colon = tested on: SW-620 colon
SK-MEL-2 melanoma = tested on: SK-MEL-2 melanoma
NCI-H226 lung = tested on: NCI-H226 lung
HOP-62 NSCLC = tested on: HOP-62 NSCLC
UACC-257 melanoma = tested on: UACC-257 melanoma
IGROV1 ovarian = tested on: IGROV1 ovarian
NCI-H522 lung = tested on: NCI-H522 lung
KM12 colon = tested on: KM12 colon
SNB-19 CNS = tested on: SNB-19 CNS
CCRF-CEM leukemia = tested on: CCRF-CEM leukemia
MOLT-4 leukemia = tested on: MOLT-4 leukemia
T-47D breast = tested on: T-47D breast
OVCAR-4 ovarian = tested on: OVCAR-4 ovarian
786-0 renal = tested on: 786-0 renal
DU-145 prostate = tested on: DU-145 prostate
SNB-75 CNS = tested on: SNB-75 CNS
UO-31 renal = tested on: UO-31 renal
CAKI-1 renal = tested on: CAKI-1 renal
SR leukemia = tested on: SR leukemia
MCF7 breast = tested on: MCF7 breast
SN12C renal = tested on: SN12C renal
RPMI-8226 leukemia = tested on: RPMI-8226 leukemia
HCT-15 colon = tested on: HCT-15 colon
HCT-116 colon = tested on: HCT-116 colon
SK-OV-3 ovarian = tested on: SK-OV-3 ovarian
U251 CNS = tested on: U251 CNS
OVCAR-5 ovarian = tested on: OVCAR-5 ovarian
NCI/ADR-RES ovarian = tested on: NCI/ADR-RES ovarian
OVCAR-8 ovarian = tested on: OVCAR-8 ovarian
HL-60(TB) leukemia = tested on: HL-60(TB) leukemia
ACHN renal = tested on: ACHN renal
HCC-2998 colon = tested on: HCC-2998 colon
M14 melanoma = tested on: M14 melanoma
HOP-92 NSCLC = tested on: HOP-92 NSCLC
HS 578T breast = tested on: HS 578T breast
SF-268 CNS = tested on: SF-268 CNS
EKVX NSCLC = tested on: EKVX NSCLC
BT-549 breast = tested on: BT-549 breast

`NC(=O)c1cc(Cl)ccc1NC(=O)COc1ccccc1` gave a GI50 (TK-10 renal) of 63.8 µM, a TGI (TK-10 renal) of over 100 µM and a GI50 (HT29 colon) of 1740 nM. The TGI (HT29 colon) was over 100 µM, the GI50 (NCI-H23 lung) was 5.9 µM and the TGI (NCI-H23 lung) was over 100 µM. The GI50 (PC-3 prostate) was 3.22 µM, the TGI (PC-3 prostate) was over 100 µM and the GI50 (RXF 393 renal) was 3.93 µM. It also gave a TGI (RXF 393 renal) of 39.4 µM, a GI50 (NCI-H460 lung) of 3000 nM and a TGI (NCI-H460 lung) of over 100 µM. For the same molecule, the GI50 (OVCAR-3 ovarian) was 2300 nM, the TGI (OVCAR-3 ovarian) was 10 µM and the GI50 (COLO 205 colon) was 2510 nM. For the same molecule, the TGI (COLO 205 colon) was 14.4 µM, the GI50 (MDA-MB-435) was 356 nM and the TGI (MDA-MB-435) was 2220 nM. For the same molecule, the GI50 (UACC-62 melanoma) was 5.42 µM, the TGI (UACC-62 melanoma) was over 100 µM and the GI50 (K-562 leukemia) was 854 nM. The TGI (K-562 leukemia) was over 100 µM, the GI50 (MDA-MB-231 breast) was 9.02 µM and the TGI (MDA-MB-231 breast) was over 100 µM. For the same molecule, the GI50 (SK-MEL-5 melanoma) was 7.45 µM, the TGI (SK-MEL-5 melanoma) was over 100 µM and the GI50 (A498 renal) was 1410 nM. It also gave a TGI (A498 renal) of 9.27 µM, a GI50 (SF-539 CNS) of 1800 nM and a TGI (SF-539 CNS) of 5.2 µM. For the same molecule, the GI50 (LOX IMVI melanoma) was 8.33 µM, the TGI (LOX IMVI melanoma) was over 100 µM and the GI50 (A549 NSCLC) was 7.06 µM. It also gave a TGI (A549 NSCLC) of over 100 µM, a GI50 (SF-295 CNS) of 1960 nM and a TGI (SF-295 CNS) of 41.6 µM. For the same molecule, the GI50 (SK-MEL-28 melanoma) was 6.25 µM, the TGI (SK-MEL-28 melanoma) was over 100 µM and the GI50 (SW-620 colon) was 2580 nM. It also gave a TGI (SW-620 colon) of over 100 µM, a GI50 (SK-MEL-2 melanoma) of 5.08 µM and a TGI (SK-MEL-2 melanoma) of over 100 µM. The GI50 (NCI-H226 lung) was over 100 µM, the TGI (NCI-H226 lung) was over 100 µM and the GI50 (HOP-62 NSCLC) was 5.88 µM. It also gave a TGI (HOP-62 NSCLC) of over 100 µM, a GI50 (UACC-257 melanoma) of over 100 µM and a TGI (UACC-257 melanoma) of over 100 µM. The GI50 (IGROV1 ovarian) was 5.6 µM, the TGI (IGROV1 ovarian) was over 100 µM and the GI50 (NCI-H522 lung) was 3.78 µM. The TGI (NCI-H522 lung) was over 100 µM, the GI50 (KM12 colon) was 2130 nM and the TGI (KM12 colon) was over 100 µM. For the same molecule, the GI50 (SNB-19 CNS) was 11.7 µM, the TGI (SNB-19 CNS) was over 100 µM and the GI50 (CCRF-CEM leukemia) was 3.07 µM. For the same molecule, the TGI (CCRF-CEM leukemia) was over 100 µM, the GI50 (MOLT-4 leukemia) was 8.14 µM and the TGI (MOLT-4 leukemia) was over 100 µM. The GI50 (T-47D breast) was 6.88 µM, the TGI (T-47D breast) was over 100 µM and the GI50 (OVCAR-4 ovarian) was over 100 µM. It also gave a TGI (OVCAR-4 ovarian) of over 100 µM, a GI50 (786-0 renal) of 9.54 µM and a TGI (786-0 renal) of over 100 µM. It also gave a GI50 (DU-145 prostate) of 6.01 µM, a TGI (DU-145 prostate) of over 100 µM and a GI50 (SNB-75 CNS) of 1810 nM. For the same molecule, the TGI (SNB-75 CNS) was 23 µM, the GI50 (UO-31 renal) was 17.9 µM and the TGI (UO-31 renal) was over 100 µM. For the same molecule, the GI50 (CAKI-1 renal) was 4.18 µM, the TGI (CAKI-1 renal) was over 100 µM and the GI50 (SR leukemia) was 777 nM. It also gave a TGI (SR leukemia) of over 100 µM, a GI50 (MCF7 breast) of 1810 nM and a TGI (MCF7 breast) of over 100 µM. The GI50 (SN12C renal) was 17 µM, the TGI (SN12C renal) was over 100 µM and the GI50 (RPMI-8226 leukemia) was 4.33 µM. The TGI (RPMI-8226 leukemia) was over 100 µM, the GI50 (HCT-15 colon) was 1570 nM and the TGI (HCT-15 colon) was over 100 µM. The GI50 (HCT-116 colon) was 2720 nM, the TGI (HCT-116 colon) was over 100 µM and the GI50 (SK-OV-3 ovarian) was 8.15 µM. For the same molecule, the TGI (SK-OV-3 ovarian) was over 100 µM, the GI50 (U251 CNS) was 2340 nM and the TGI (U251 CNS) was over 100 µM. The GI50 (OVCAR-5 ovarian) was 3.86 µM, the TGI (OVCAR-5 ovarian) was over 100 µM and the GI50 (NCI/ADR-RES ovarian) was 1430 nM. The TGI (NCI/ADR-RES ovarian) was 20.9 µM, the GI50 (OVCAR-8 ovarian) was 7.06 µM and the TGI (OVCAR-8 ovarian) was over 100 µM. For the same molecule, the GI50 (HL-60(TB) leukemia) was 3.29 µM, the TGI (HL-60(TB) leukemia) was 70.7 µM and the GI50 (ACHN renal) was 10.7 µM. The TGI (ACHN renal) was over 100 µM, the GI50 (HCC-2998 colon) was 12.1 µM and the TGI (HCC-2998 colon) was over 100 µM. For the same molecule, the GI50 (M14 melanoma) was 2210 nM, the TGI (M14 melanoma) was over 100 µM and the GI50 (HOP-92 NSCLC) was 5.7 µM. It also gave a TGI (HOP-92 NSCLC) of over 100 µM, a GI50 (HS 578T breast) of 4.65 µM and a TGI (HS 578T breast) of over 100 µM. For the same molecule, the GI50 (SF-268 CNS) was 9.89 µM and the TGI (SF-268 CNS) was over 100 µM.
For `N#CC(C#N)=C1/C(=C/C=C/C=C/C=C/c2ccc(N3CCCCC3)s2)S(=O)(=O)c2ccccc21`, the TGI (TK-10 renal) was over 100 µM, the TGI (HT29 colon) was over 100 µM and the TGI (NCI-H23 lung) was over 100 µM. The TGI (PC-3 prostate) was over 100 µM, the TGI (RXF 393 renal) was over 100 µM and the TGI (NCI-H460 lung) was over 100 µM. For the same molecule, the TGI (OVCAR-3 ovarian) was over 100 µM, the TGI (COLO 205 colon) was over 100 µM and the TGI (MDA-MB-435) was over 100000 nM. It also gave a TGI (UACC-62 melanoma) of over 100 µM, a TGI (K-562 leukemia) of over 100 µM and a TGI (MDA-MB-231 breast) of over 100 µM. It also gave a TGI (SK-MEL-5 melanoma) of over 100 µM, a TGI (A498 renal) of over 100 µM and a TGI (SF-539 CNS) of over 100 µM. For the same molecule, the TGI (LOX IMVI melanoma) was over 100 µM, the TGI (A549 NSCLC) was over 100 µM and the TGI (SF-295 CNS) was over 100 µM. The TGI (SK-MEL-28 melanoma) was over 100 µM, the TGI (EKVX NSCLC) was over 100 µM and the TGI (SW-620 colon) was over 100 µM. The TGI (SK-MEL-2 melanoma) was over 100 µM, the TGI (NCI-H226 lung) was over 100 µM and the TGI (HOP-62 NSCLC) was over 100 µM. For the same molecule, the TGI (UACC-257 melanoma) was over 100 µM, the TGI (IGROV1 ovarian) was over 100 µM and the TGI (NCI-H522 lung) was over 100 µM. For the same molecule, the TGI (KM12 colon) was over 100 µM, the TGI (SNB-19 CNS) was over 100 µM and the TGI (CCRF-CEM leukemia) was over 100 µM. It also gave a TGI (MOLT-4 leukemia) of 63 µM, a TGI (BT-549 breast) of over 100 µM and a TGI (T-47D breast) of over 100 µM. For the same molecule, the TGI (OVCAR-4 ovarian) was over 100 µM, the TGI (786-0 renal) was over 100 µM and the TGI (DU-145 prostate) was over 100 µM. For the same molecule, the TGI (SNB-75 CNS) was over 100 µM, the TGI (CAKI-1 renal) was over 100 µM and the TGI (SR leukemia) was over 100 µM. It also gave a TGI (MCF7 breast) of over 100 µM, a TGI (SN12C renal) of over 100 µM and a TGI (RPMI-8226 leukemia) of over 100 µM. The TGI (HCT-15 colon) was over 100 µM, the TGI (HCT-116 colon) was over 100 µM and the TGI (SK-OV-3 ovarian) was over 100 µM. The TGI (U251 CNS) was over 100 µM, the TGI (OVCAR-5 ovarian) was over 100 µM and the TGI (NCI/ADR-RES ovarian) was over 100 µM. It also gave a TGI (OVCAR-8 ovarian) of over 100 µM, a TGI (HL-60(TB) leukemia) of over 100 µM and a TGI (ACHN renal) of over 100 µM. The TGI (HCC-2998 colon) was over 100 µM, the TGI (M14 melanoma) was over 100 µM and the TGI (HOP-92 NSCLC) was over 100 µM.
